Experimental data as given in patent publication US10369123B2, “Perk activator for the treatment of neurodegenerative diseases” (DEUTSCHES ZENTRUM FÜR NEURODEGENERATIVE ERKRANKUNGEN E.V. …, priority 2014, dated 2019).

How the values were obtained:
Assay type in all cases: cell-based, human
[1] = test system: unfolded protein response (PERK, EIF2A); assay: Western blot of UPR proteins in differentiated LUHMES neurons; settings: 48 h; for phosphorylated EIF2A (pEIF2A) protein / phosphorylated PERK (pPERK) protein: thapsigargin 30 nM or annonacin 25 nM
Procedure: (§1) Nunc™ Nunclon™ Delta 6-well (for protein and mRNA) or 48-well (for cell assays) plates (Thermo Fisher Scientific, Waltham, Mass., USA) were coated with 100 μg/ml poly-L-lysine (Sigma-Aldrich, St. Louis, Mo., USA) and 5 μg/ml fibronectin (Sigma-Aldrich). LUHMES (Lund Human Mesencephalic) cells, derived from human embryonic ventral mesencephalic cells by conditional immortalization (Tet-off v-myc over-expression) were seeded out in a concentration of 130,000 cells/cm^2 to achieve a confluence of 50%. They were then differentiated for 8 days in a medium of DMEM/F12 (Sigma-Aldrich), 1 μg/ml tetracycline, […] and 490 μg/ml dbcAMP into post-mitotic neurons with a dopaminergic phenotype (Lotharius et al. 2005).
(§2) For all experiments with annonacin, the medium was replaced during the intoxication period with new medium containing glucose levels reduced to 250 μM, i.e. the physiological concentration in the human brain.
(§3) Protein was extracted by scraping the cells from the culture plate with Mammalian Protein Extraction Reagent (M-PER, Thermo Fisher Scientific) and 1× cOmplete Protease Inhibitor Cocktail Tablets (Hoffmann-La Roche, Basel, Switzerland) and 1× PhosSTOP Phosphatase Inhibitor Cocktail Tablets (Hoffmann-La Roche). For pNRF2 blots, cells were extracted with 2% SDS tris-buffer instead of M-PER in order to obtain whole cell extracts and not to lose the nuclear fraction. The protein solution was frozen at −80° C., immediately after retrieval, for a minimum of two hours. The solution was then thawed on ice, vortexed, centrifuged at 5000 g for 15 min at 4° C. and the supernatant retrieved. Protein concentrations were determined using the BCA kit (Thermo Fisher Scientific) by heating the samples at 60° C. for 30 min and measuring the absorption on the NanoDrop 2000c Spectrophotometer (Thermo Fisher Scientific).
200 μg of protein were diluted to equal concentrations with M-PER lysis buffer (Thermo Fisher Scientific) up to 270 μl. The PERK D11A8 antibody (Cell Signaling Technology, Beverly, Mass., USA) was added to a concentration of 1:100 and allowed to bind the antigen for one hour in a rotating 1.5 ml microcentrifuge tube. Then 30 μl of protein sepharose A beads (Sigma-Aldrich, 3 mg per ml) were added to each tube and left rotating overnight at 4° C. The tubes were then centrifuged at 10,000 g for 3 minutes and the supernatant was discarded. The beads were washed in M-PER three times. Each time the beads were centrifuged and the supernatant was extracted with a Hamilton Syringe (Hamilton, Bonaduz, Switzerland) and discarded. The beads were then mixed with 15 μl 1× Roti®-Load 1 (Carl Roth) and heated at 95° C. for 5 minutes. After another centrifugation step of 10,000 g for 1 minute the supernatant was loaded onto a gel with the Hamilton syringe and then blotted as described below.
(§4) 20 μg of protein (unless indicated otherwise) were adjusted to equal concentrations between samples by dilution with M-PER and subsequently heated at 95° C. for 5 minutes with Roti®-Load 1 (Carl Roth). SDS-PAGE was performed using Any kD™ Mini-PROTEAN® TGX™ Gels (BioRad, Berkeley, Calif., USA) in a tris-glycine running buffer. The protein was blotted onto PVDF membrane (BioRad) at 70 V for 65 minutes on ice. The membrane was blocked with 1× Roti®-Block solution (Carl Roth) for 1 h and then incubated at 4° C. overnight under gentle shaking with the primary antibody (see Table 5) in TBS with 5% BSA (Cell Signaling Technology) and 0.05% TWEEN (Sigma-Aldrich).
The membranes were then washed and incubated with the species specific HRP-bound secondary antibody (Vector Laboratories, Burlingame, Calif., USA) at 1:2500 in 1× Roti®-Block solution for 2 h, followed by further washing and exposure to Clarity Western ECL Substrate (BioRad) or, in the case of MC1 and 4R-tau, to Amersham™ ECL™ Prime (GE Healthcare). […]

[2] = test system: EIF2AK3, EIF2A and ATF4 mRNA; assay: Quantitative PCR of UPR genes in differentiated LUHMES neurons; settings: 48 h; for ATF4 mRNA expression: thapsigargin 30 nM or annonacin 25 nM
Procedure: as §1, §2
(§5) RNA from human tissue samples was extracted by grinding the tissue in liquid nitrogen to a powder and then dissolving it in the RA1 buffer supplied as part of the NucleoSpin® RNA (Macherey Nagel) RNA extraction kit+1% (v/v) 2-mercaptoethanol (Sigma-Aldrich). RNA from cells was extracted by scraping the cells from the culture plate with RA1 buffer+1% (v/v) 2-mercaptoethanol. The remaining extraction procedure was according to the manufacturer's instructions for the NucleoSpin® RNA kit. RNA concentrations were determined using the NanoDrop 2000c Spectrophotometer. The RNA was then transcribed into cDNA with the iScript™ cDNA Synthesis Kit (BioRad) using the manufacturer's instructions. Real-Time PCR was performed on the Applied Biosystems® StepOnePlus™ (Life Technologies) system using TagMan® Universal Master Mix II and TaqMan® primers against total MAPT, MAPT 3R, MAPT 4R, EIF2A, EI2AK3 and ATF4. POL2A and PSCM1 served as reference targets as they were determined to be the most stably expressed across experimental conditions. The results were analyzed using the StepOne Plus software (Life Technologies) and Qbase software (Biogazelle) and were then graphically and statistically analyzed with Prism 6 (GraphPad Software). Absolute quantification was performed by creating a standard curve with plasmids containing either the 2N3R or the 2N4R spliced variant of MAPT (see Table 2). The absolute quantity was computed by deriving the relationship between CT values and absolute quantity with the StepOne Plus software.

LUHMES neurons [3] = assay: MTT assay, annonacin-treated LUHMES neurons; settings: annonacin alone, different concentrations, 48 h
Procedure: as §1, §2
Thiazolyl Blue Tetrazolium […] (MTT) (Sigma Aldrich) was dissolved in sterile PBS to a concentration of 5 mg/ml. This stock solution was added to the cells in culture medium to achieve a final concentration of 0.5 mg/ml. The 48-well culture plate was then incubated at 37° C. for 1 h, the medium removed completely and frozen at −80° C. for 1 h. The plate was then thawed, 300 μl DMSO (AppliChem, Darmstadt, Germany) was added per well and the plate was shaken to ensure complete dissolution of the violet crystals. 100 μl from each well were transferred to a new 96-well plate and the absorbance was read with the FLUOstar Omega (BMG Labtech) platereader at a wavelength of 590 nm (reference wave length 630 nm). The data was analyzed using the MARS Data Analysis Software (BMG Labtech) and Prism 6.

LUHMES neurons [4] = assay: ATP assay, annonacin-treated LUHMES neurons; settings: annonacin alone, different concentrations, 48 h
Procedure: as §1, §2
ATP assays were conducted using the ViaLight™ plus kit by Lonza according to the manufacturer's instructions. Luminescence was read with the FLUOstar Omega (BMG Labtech) platereader. The data was analyzed using the MARS Data Analysis Software (BMG Labtech) and Prism 6.

LUHMES neurons [5] = assay: Morphological inspection and counts of viable cells; settings: annonacin 25 nM, 48 h
Procedure: as §1, §2
The protection by the PERK activator against annonacin and 4R-tau protein overexpression was also evident on morphological inspection of the cells. […] Lentiviral 4R-tau overexpression had similar effects. […] Cell counts of viable cells with intact nuclear and somatic morphology were counted in randomly selected 1300×1000 sized areas in 4 biological replicates each, confirming the protective effects of Pa.

tau = assay: Western blot of tau conformation and phosphorylation, annonacin model; settings: annonacin 25 nM, 48 h
Procedure: as §1, §2, §3, §4
The membranes were then washed and incubated with the species specific HRP-bound secondary antibody (Vector Laboratories, Burlingame, Calif., USA) at 1:2500 in 1× Roti®-Block solution for 2 h, followed by further washing and exposure to Clarity Western ECL Substrate (BioRad) or, in the case of MC1 and 4R-tau, to Amersham™ ECL™ Prime (GE Healthcare). Chemiluminescence was detected with the Gel Doc™ XR System (BioRad) and analyzed with Image Lab™ software (BioRad), followed by graphical and statistical analysis with Prism 6 (GraphPad Software).

[6] = test system: 4R-tau and 3R-tau isoforms; assay: Western blot of 3R-/4R-tau isoforms, annonacin model; settings: annonacin 25 nM, 48 h
Procedure: as §1, with “2005). […]” for “2005).”
Protein was extracted by scraping the cells from the culture plate with Mammalian Protein Extraction Reagent (M-PER, Thermo Fisher Scientific) and 1× cOmplete Protease Inhibitor Cocktail Tablets (Hoffmann-La Roche, Basel, Switzerland) and 1× PhosSTOP Phosphatase Inhibitor Cocktail Tablets (Hoffmann-La Roche). […] Protein concentrations were determined using the BCA kit (Thermo Fisher Scientific) by heating the samples at 60° C. for 30 min and measuring the absorption on the NanoDrop 2000c Spectrophotometer (Thermo Fisher Scientific). […]

[7] = test system: 3R/4R MAPT mRNA, splicing factor SRSF2; assay: Quantitative PCR of MAPT isoforms and splicing factors, annonacin model; settings: annonacin
Procedure: as §1, §2, §5

SMILES	total EIF2A protein ([1]; annonacin 25 nM, vs untreated)	total PERK protein ([1]; annonacin 25 nM, vs untreated)	phosphorylated EIF2A (pEIF2A) protein ([1]; vs untreated)	phosphorylated PERK (pPERK) protein ([1]; vs untreated)	EIF2A mRNA expression ([2]; annonacin 25 nM)	ATF4 mRNA expression [2]	MTT signal (LUHMES neurons [3])	ATP concentration (LUHMES neurons [4])	condensation of DNA to chromatin clumps (LUHMES neurons [5])	density of the dendritic network (LUHMES neurons [5])	total tau protein (HT7) (tau)	AD2 (p-Ser-396 and 404) tau phosphorylation (tau; vs control)	CP13 (p-Ser-202) tau phosphorylation (tau; vs control)	MC1 pathological tau conformation (tau; vs control)	4R-tau protein level [6]	splicing factor SRSF2 mRNA [7]	4R-tau mRNA level ([7]; 48 h)	pPERK/PERK ratio ([1]; thapsigargin 30 nM)	EIF2AK3 mRNA expression ([2]; thapsigargin 30 nM)
CCCCCCCCCCCC[C@@H](O)[C@H]1CC[C@H]([C@H](O)CCCC[C@H](O)CCCCC[C@@H](O)CC2=CC(C)OC2=O)O1 (stereo partly shown) [annonacin]	reduced	reduced	reduced	increased	upregulated	upregulated	concentration-dependent decline	concentration-dependent decline	led to the condensation of DNA to chromatin clumps	reduced	not altered	significantly increased	significantly increased	increased	increase	significantly increase	increase	–	–
C/C=C(/C)C(=O)O[C@H]1C(C)=C2[C@H]([C@@H]1OC(=O)CCCCCCC)[C@@](C)(OC(C)=O)C[C@H](OC(=O)CCC)[C@@]1(O)[C@H]2OC(=O)[C@@]1(C)O [thapsigargin]	–	–	increased phosphorylation	increased phosphorylation	–	increased expression	–	–	–	–	–	–	–	–	–	–	–	significantly increased	increased expression
